# In US20260224496A1, “HIGHLY POROUS GAS-BLOWN HYDROGELS FOR DIRECT CELL ENCAPSULATION WITH HIGH CELL VIABILITY” (Syracuse University, priority 2023, published 2026):
# Experiments:
# in vitro = test: in vitro
# Procedure: (§1) Using IC50 values as a concentration ceiling, the cytocompatibility of citric acid, NaHCO3, and Irgacure 2959 was measured with adipose-derived MSCs at concentrations of 0.25, 1, and 0.2% (w/v) in DMEM, respectively. MSCs were seeded in 24 well plates at 2,500 cells per well. […] After incubation, cells were treated with a resazurin assay for 2 hours for cytocompatibility measurements or with Live/Dead assay stains and imaging for morphology analysis.
# 3T3 mouse fibroblasts = test: IC50 values of foaming components, resazurin assay (Alamar Blue); assay type: cell-based; conditions: 20-minute exposure
# Procedure: Cells were cultured in DMEM with 10% fetal bovine serum (FBS) and 1% penicillin-streptomycin (pen-strep) at 37° C. with 5% CO2. Cells were trypsinized and seeded at a density of 5,000 cells per well in a 96-well plate. […] After a 20-minute exposure, solutions were removed, and cell viability was measured compared to an untreated control using a resazurin assay (Alamar Blue) read by a plate reader. Cell viability was calculated as: […]
# The blank was a well with media only and no cells.
# adipose-derived MSCs = test: in vitro
# Procedure: as §1
smiles,measurement,setting,value
"O=C(O)CC(O)(CC(=O)O)C(=O)O [Citric acid, citric acid]","viability at 1 h, 0.25 % (w/v)",in vitro,51%
same,"viability at 24 h, 0.25 % (w/v)",in vitro,21%
same,IC50,3T3 mouse fibroblasts,0.23 wt %
CC(C)(O)C(=O)c1ccc(OCCO)cc1 [Irgacure 2959],MSC viability after 24-hour recovery,adipose-derived MSCs,99%
same,MSC viability after 1 hour of exposure,adipose-derived MSCs,99%
"O=C([O-])O.[Na+] [NaHCO3, sodium bicarbonate]",MSC viability after 24-hour recovery,"adipose-derived MSCs; citric acid 0.25%, Irgacure 2959 0.2%, NaHCO3 1% (w/v) in DMEM, 24-hour recovery",95%
same,MSC viability after 1 hour of exposure,"adipose-derived MSCs; citric acid 0.25%, Irgacure 2959 0.2%, NaHCO3 1% (w/v) in DMEM, 1 hour exposure",98%
